# In article PMC6211316, “Synthesis and biological evaluation of 3-arylcoumarin derivatives as potential anti-diabetic agents” (Journal of Enzyme Inhibition and Medicinal Chemistry, 2018):
# Read-outs that look alike come from different tables or passages of the source.
# What was measured:
# AGEs formation = experiment: In vitro inhibitory activity of AGEs formation (bovine serum albumin/glucose); type: biochemical; conditions: mean ± SD (n = 3)
# Protocol: To prepare the AGEs reaction solution, 10 mg/mL of bovine serum albumin in 50 mM PBS (pH 7.4) was added to 0.2 M glucose, and 0.02% sodium azide was added to prevent bacterial growth. The reaction mixture (3.0 ml) was then mixed with various concentrations (0.5–1000 μg/mL) of the target compounds (1.0 ml) dissolved in DMSO. After incubating at 37 °C for 14 d, the fluorescence intensity of AGE was determined by a fluorospectrophotometer (PE, USA) with excitation and emission wavelengths at 350 nm and 420 nm, respectively. All experiments were run in triplicate. Aminoguanidine hydrochloride was used as a reference compound. The inhibition rate of AGEs formation and the IC50 value of each sample were calculated according to the formula. Inhibition rate %={[(AC−AB)−(AS−ASB)]/(AC−AB)}×100% where AC is the absorbance of control group(1.0 ml glucose +1.0 ml bovine serum albumin +1.0 ml sodium azide +1.0 ml DMSO); AB is the absorbance of blank group(1.0 ml PBS +1.0 ml bovine serum albumin +1.0 ml sodium azide +1.0 ml DMSO); AS is the absorbance of sample group (1.0 ml glucose +1.0 ml bovine serum albumin +1.0 ml sodium azide +1.0 ml target compound solution or Aminoguanidine hydrochloride solution); ASB is the absorbance of sample blank group (1.0 ml PBS +1.0 ml bovine serum albumin +1.0 ml sodium azide +1.0 ml target compound solution or Aminoguanidine hydrochloride solution).
# [1] = tested on: STZ-induced hyperglycemic mice; parameters: method as in PMID 20040119; conditions: 100 mg/kg/day; cited from earlier work
# [2] = DPPH free radical scavenging; conditions: mean ± SD (n = 3)
# Protocol: The effect of target compounds and vitamin C to scavenge the DPPH free radical was evaluated with the method described by Villano et al.[43] with slight modifications.
# Two millilitres of different concentrations of the sample solution was added to 2.0 ml of DPPH solution (0.04 mg/mL), shaken and allowed to react at room temperature for 30 min. The absorbance value was measured at 517 nm with an ultraviolet-visible spectrophotometer. The blank reference cuvette contained absolute ethanol. All measurements were performed in triplicate. IC50 values were calculated. The percentage of DPPH radical scavenging rate of the target compound is calculated as follows: DPPH free radical scavenging effect (%)=[A0−(A1−A2)]/A0×100% where A0 is the absorbance of 2.0 ml DPPH solution +2.0 ml absolute ethanol; A1 is the absorbance of 2.0 ml DPPH solution +2.0 ml 3-arylcoumarins solution or standard; A2 is the absorbance of 2.0 ml 3-arylcoumarins solution or standard +2.0 ml absolute ethanol.
# [3] = hydroxyl radical scavenging; conditions: mean ± SD (n = 3), read-out: OH IC50 Value
# Protocol: The ability of the target compounds and vitamin C to scavenge the hydroxyl radical was evaluated with method described by Ismaili et al.[29] with slight modifications. In test tube, 1.0 ml H2O2 solution (0.03%), 1.0 ml FeSO4 solution (2 mmol.L^−1), 1.0 ml salicylic acid solution (10 mmol.L^−1) and 1.0 ml of 3-arylcoumarins and standard water solution with different concentration (0.4–2.0 mg/mL) were mixed. Finally, 1.0 ml H2O2 solution (0.03%) was added to this mixture to start the reaction. Solutions were kept at 37 °C. After 30 min, the absorbance was measured at 510 nm against the reagent blank, where the distilled water was substituted for the H2O2 solution. The percentage of OH scavenging by target compounds and vitamin C was calculated the following equation: OH scavenging effect (%)=[A0−(A1−A2)]/A0×100% where A0 is the absorbance of 1.0 ml distilled water +1.0 ml H2O2 + 1.0 ml FeSO4 + 1.0 ml salicylic acid +1.0 ml H2O2; A1 is the absorbance of 1.0 ml 3-arylcoumarins or standard +1.0 ml H2O2 + 1.0 ml FeSO4 + 1.0 ml salicylic acid +1.0 ml H2O2; A2 is the absorbance of 1.0 ml 3-arylcoumarins or standard +1.0 ml H2O2 + 1.0 ml FeSO4 + 1.0 ml absolute absolute ethanol +1.0 ml H2O2.
# α-Glucosidase = target: T1, α-Glucosidase (Saccharomyces cerevisiae, UniProt P53341); experiment: biochemical; type: biochemical; conditions: for α-glucosidase inhibitory activity (in words): in vitro
# T1 construct: purchased Sigma Aldrich G0660-750UN
# T1 sequence (P53341 whole entry): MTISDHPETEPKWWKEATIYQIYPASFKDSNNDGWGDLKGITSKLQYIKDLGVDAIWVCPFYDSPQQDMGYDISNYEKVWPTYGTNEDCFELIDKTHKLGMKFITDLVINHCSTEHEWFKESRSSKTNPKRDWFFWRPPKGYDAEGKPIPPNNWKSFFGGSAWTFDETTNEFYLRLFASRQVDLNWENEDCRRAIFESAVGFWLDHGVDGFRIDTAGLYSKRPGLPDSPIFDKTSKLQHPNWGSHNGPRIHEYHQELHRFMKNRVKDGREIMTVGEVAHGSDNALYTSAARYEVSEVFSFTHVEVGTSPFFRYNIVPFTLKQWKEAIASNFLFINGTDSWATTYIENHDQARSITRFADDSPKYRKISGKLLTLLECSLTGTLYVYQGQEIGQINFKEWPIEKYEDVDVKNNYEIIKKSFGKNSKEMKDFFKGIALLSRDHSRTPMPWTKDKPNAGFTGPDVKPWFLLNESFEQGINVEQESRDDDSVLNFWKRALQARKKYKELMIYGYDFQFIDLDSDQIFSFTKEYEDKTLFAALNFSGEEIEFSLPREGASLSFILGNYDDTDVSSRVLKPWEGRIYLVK
# Protocol: α-Glucosidase (G0660-750UN, Sigma Aldrich) and 4-Nitrophenyl α-D-glucopyranoside (PNPG, Macklin) were dissolved in phosphate buffer (pH 6.8, 100 mM), and the test compounds were dissolved in DMSO solution. The experiment was divided into blank group, control group, sample blank group, and sample group. The reagents were loaded in 96-well plates at the dose of the table (Table 8). The solution was bathed in 37 °C water for 10 min, and then enzyme solution was added. After reaction at 37 °C for 20 min, 70 μL Na2CO3 solution ([…]) was added to stop the reaction. All experiments were run in triplicate. […] Since PNPG can produce glucose and p-Nitrophenol (PNP) under the action of α-glucosidase, PNP has the greatest absorption at 405 nm. The absorbance was determined by the microplate reader, and the inhibition rate of α-glucosidase and the IC50 value of each sample were calculated according to the formula. Inhibition rate %={[(AC−AB)−(AS−ASB)]/(AC−AB)}×100% where AC is the absorbance of control group; AB is the absorbance of blank group; AS is the absorbance of sample group; ASB is the absorbance of sample blank group.
# [4] = Oral toxicity to mice (Lorke's method); conditions: both sexes, mouse, in vivo, Kunming mice, observed 14 days
# Protocol: With reference to Lorke’s method, kunming mice were used as targets to estimate the oral toxicity of each compound to mice. We select compounds 11, 17, 25, 28, and 35 at concentrations of 10, 100, and 1000 mg/kg to test their oral toxicity in the first phase, and 1600, 2900, and 5000 mg/kg at the second phase.
# Experiments were performed on Kunming mice (male and female half, bw range, 25–30 g). Mice were housed in a climate and light controlled room with a 12 h light/dark cycle. Twelve hours before experiments, food was withheld, but animals had free access to drinking water. The compounds were suspended in vehicle (Tween-80, 0.2% in saline). The concentrations were adjusted to orally administrate 0.2 ml/10 g of bw. Mice were treated in two phases. In the first, intragastric doses of 10, 100 and 1000 mg/kg of bw of compounds were administered. On the second, the doses were adjusted to 1600, 2900, and 5000 mg/kg of bw of compounds. In both phases, mice were observed daily in a period of 14 days for mortality, toxic effects and/or changes in behavioural pattern. At the end of the experiments, the mice were sacrificed in a CO2 chamber.
# STZ-diabetic mice = experiment: Acute hypoglycemic assay in STZ-diabetic mice; type: in vivo; conditions: STZ-diabetics mice
# Protocol: Type II diabetes mellitus was induced in mice by a single intraperitoneal injection of freshly prepared STZ (Sigma Aldrich) dissolved in 0.1M citrate buffer, pH 4.5, in a volume of 110 mg/kg of bw. After 7 days of STZ administration, blood glucose levels of each mouse were determined. Mice with blood glucose levels higher than 11 mM were considered diabetic and were included in the study.
# STZ-induced diabetic mice and normal mice were placed in single cages with wire-net floors and deprived of food for 12 h before experimentation but allowed free access to tap water throughout. The compounds (at the doses of 10, 30, and 100 mg/kg of bw) were suspended in 0.05% Tween-80 in saline solution. Glibenclamide (10 mg/kg of bw) was suspended in the same vehicle. The target compounds were freshly prepared immediately before experimentation and administered by the intragastrical route at the doses of 10 ml/kg of bw. Control mice received only the vehicle (0.05% Tween-80 in saline solution) by the same route. Blood glucose levels were measured at 0, 1.5, 3, 5, 7, and 9 h after drugs administration.
# mice = tested on: mice; parameters: method as in PMID 17360155; conditions: cited from earlier work
compound,measurement,setting,value
"N=C(N)NN [AG, amino guanidine, reference compound]",IC50,AGEs formation,270 ± 7.19 µM
same,effect on STZ-induced hyperglycemic mice,[1],no significant effect
"O=c1oc2cc(O)cc(O)c2cc1-c1ccc(O)cc1 [Compound 28, 5,7-Dihydroxy-3-(4-hydroxyphenyl)-coumarin]",IC50,[2],41.51 ± 0.18 µM
same,IC50,[3],> 1000 µM
same,α-glucosidase inhibitory activity (in words),α-Glucosidase,moderate to excellent inhibitory activity
same,IC50,"α-Glucosidase; mean ± SD (n = 3), read-out: α-Glucosidase inhibitory activity IC50 Value",1.37 ± 0.15 µM
same,LD50 at 14 days,[4],> 5000 mg/kg
same,Blood glucose concentration,"STZ-diabetic mice; 10 mg/kg of bw per os, 0h",15.3 ± 3.8 mM
same,% Variation of glycemia,"STZ-diabetic mice; 10 mg/kg of bw per os, 1.5h",(−3.27) %
same,Blood glucose concentration,"STZ-diabetic mice; 10 mg/kg of bw per os, 1.5h",14.8 ± 5.8 mM
same,% Variation of glycemia,"STZ-diabetic mice; 10 mg/kg of bw per os, 3h",(−25.49) %
same,Blood glucose concentration,"STZ-diabetic mice; 10 mg/kg of bw per os, 3h",11.4 ± 4.2 mM
same,% Variation of glycemia,"STZ-diabetic mice; 10 mg/kg of bw per os, 5h",(−41.83) %
same,Blood glucose concentration,"STZ-diabetic mice; 10 mg/kg of bw per os, 5h",8.9 ± 2.6 mM
same,% Variation of glycemia,"STZ-diabetic mice; 10 mg/kg of bw per os, 7h",(−58.17) %
same,Blood glucose concentration,"STZ-diabetic mice; 10 mg/kg of bw per os, 7h",6.4 ± 1.6 mM
same,% Variation of glycemia,"STZ-diabetic mice; 10 mg/kg of bw per os, 9h",(−54.25) %
same,Blood glucose concentration,"STZ-diabetic mice; 10 mg/kg of bw per os, 9h",7.0 ± 2.4 mM
same,Blood glucose concentration,"STZ-diabetic mice; 30 mg/kg of bw per os, 0h",18.2 ± 6.7 mM
same,% Variation of glycemia,"STZ-diabetic mice; 30 mg/kg of bw per os, 1.5h",(−18.13) %
same,Blood glucose concentration,"STZ-diabetic mice; 30 mg/kg of bw per os, 1.5h",14.9 ± 6.6 mM
same,% Variation of glycemia,"STZ-diabetic mice; 30 mg/kg of bw per os, 3h",(−25.82) %
same,Blood glucose concentration,"STZ-diabetic mice; 30 mg/kg of bw per os, 3h",13.5 ± 6.1 mM
same,% Variation of glycemia,"STZ-diabetic mice; 30 mg/kg of bw per os, 5h",(−30.22) %
same,Blood glucose concentration,"STZ-diabetic mice; 30 mg/kg of bw per os, 5h",12.7 ± 6.7 mM
same,% Variation of glycemia,"STZ-diabetic mice; 30 mg/kg of bw per os, 7h",(−43.41) %
same,Blood glucose concentration,"STZ-diabetic mice; 30 mg/kg of bw per os, 7h",10.3 ± 5.6 mM
same,% Variation of glycemia,"STZ-diabetic mice; 30 mg/kg of bw per os, 9h",(−59.89) %
same,Blood glucose concentration,"STZ-diabetic mice; 30 mg/kg of bw per os, 9h",7.3 ± 4.5 mM
same,Blood glucose concentration,"STZ-diabetic mice; 100 mg/kg of bw per os, 0h",18.2 ± 4.1 mM
same,% Variation of glycemia,"STZ-diabetic mice; 100 mg/kg of bw per os, 1.5h",(−4.95) %
same,Blood glucose concentration,"STZ-diabetic mice; 100 mg/kg of bw per os, 1.5h",17.3 ± 6.7 mM
same,% Variation of glycemia,"STZ-diabetic mice; 100 mg/kg of bw per os, 3h",(−28.57) %
same,Blood glucose concentration,"STZ-diabetic mice; 100 mg/kg of bw per os, 3h",13.0 ± 6.6 mM
same,% Variation of glycemia,"STZ-diabetic mice; 100 mg/kg of bw per os, 5h",(−39.56) %
same,Blood glucose concentration,"STZ-diabetic mice; 100 mg/kg of bw per os, 5h",11.0 ± 6.4 mM
same,% Variation of glycemia,"STZ-diabetic mice; 100 mg/kg of bw per os, 7h",(−35.17) %
same,Blood glucose concentration,"STZ-diabetic mice; 100 mg/kg of bw per os, 7h",11.8 ± 6.0 mM
same,% Variation of glycemia,"STZ-diabetic mice; 100 mg/kg of bw per os, 9h",(−43.96) %
same,Blood glucose concentration,"STZ-diabetic mice; 100 mg/kg of bw per os, 9h",10.2 ± 4.6 mM
"COc1ccc(-c2cc3cc(O)ccc3oc2=O)cc1OC [Compound 39, 6-Hydroxy-3-(3,4-dimethoxyphenyl)-coumarin]",IC50,[2],> 1000 µM
same,IC50,[3],> 1000 µM
same,IC50,α-Glucosidase,13.1 ± 0.57 µM
same,α-glucosidase inhibitory activity (in words),α-Glucosidase,moderate to excellent inhibitory activity
same,IC50,AGEs formation,8.02 ± 0.2 µM
same,melting point,,216.1 to 217.9 °C
"CCN(CC)c1ccc2cc(-c3ccc(O)cc3)c(=O)oc2c1 [Compound 41, 7-Diethylamino-3-(4-hydroxyphenyl)-coumarin]",IC50,[2],> 1000 µM
same,IC50,[3],> 1000 µM
same,IC50,α-Glucosidase,13.4 ± 0.65 µM
same,IC50,AGEs formation,> 1000 µM
same,melting point,,190.2 to 191.8 °C
"COc1ccc(-c2cc3c(O)cc(O)cc3oc2=O)cc1OC [Compound 42, 5,7-Dihydroxy-3-(3,4-dimethoxyphenyl)-coumarin]",IC50,[2],5.89 ± 0.06 µM
same,IC50,[3],> 1000 µM
same,IC50,α-Glucosidase,39.1 ± 0.76 µM
same,IC50,AGEs formation,18.3 ± 0.38 µM
same,melting point,,322 to 324.1 °C
"COc1ccc(-c2cc3ccc(O)c(O)c3oc2=O)cc1OC [Compound 43, 7,8-Dihydroxy-3-(3,4-dimethoxyphenyl)-coumarin]",IC50,[2],4.24 ± 0.06 µM
same,IC50,[3],887 ± 15.8 µM
same,IC50,α-Glucosidase,> 1000 µM
same,IC50,AGEs formation,25.2 ± 1.72 µM
same,melting point,,290.5 to 291.9 °C
"O=C1O[C@H]([C@@H](O)CO)C(O)=C1O [Vitaminc, Vitamin C, reference compound]",IC50,[2],19.6 ± 1.88 µM
same,IC50,[2]; listed as Vitamin C,34.9 ± 0.85 µM
same,IC50,[3],788 ± 15.7 µM
same,protection against STZ-induced elevation in the plasma glucose levels,mice,only a marginal to moderate protection
NCCS(=O)(=O)O [taurine],protection against STZ-induced elevation in the plasma glucose levels,mice,only a marginal to moderate protection
